Laboratory results taken from patent publication US4925652A, “Nitroxyl compounds, and diagnostic media based thereon useful for enhancing NmR imaging” (Schering Aktiengesellschaft, priority 1983, dated 1990).

Experiment: Acute toxicity (LD50) in mice after intravenous injection into the tail vein, survival after 7 days
Conditions: in vivo, mouse, i.v. tail vein, pH 7-7.5, survival after 7 days
Method: Mice weighing 18-22 g were given varying quantities of the compound as a […] aqueous solution per kg, adjusted to pH 7-7.5 by intravenous injection into the tail vein. After 7 days, the survival rate of the mice was determined and, from this value, the LD50 in mmol/kg of animal was calculated in the usual way.
(J. Comput. Assist. Tomogr. 7, 1983, 184.)

Row | SMILES | LD50 at 168 h [µmol/kg]
1 | CC1(C)CC(C(=O)NC(CO)C(O)CO)C(C)(C)N1[O] (centres unmarked) [Compound 5, 2,2,5,5-Tetramethylpyrrolidine-1-oxyl-3-carboxylic Acid (1,3,4-Trihydroxybut-2-yl)amide] | 25000
2 | CC1(C)CC(C(=O)O)C(C)(C)N1[O] (centres unmarked) [Compound 2, 2,2,5,5-Tetramethylpyrrolidine-1-oxyl-3-carboxylic Acid, reference compound] | 10000
3 | CC1(C)C=C(C(=O)NCC(O)CO)C(C)(C)N1[O] (centres unmarked) [Compound 4, 2,2,5,5-Tetramethyl-3-pyrroline-1-oxyl-3-carboxylic Acid (2,3-Dihydroxypropyl)amide] | 15000
4 | CC1(C)CC(NC(=O)CCC(=O)O)CC(C)(C)N1[O] [Compound 1, Succinic Acid (2,2,6,6-tetramethyl-1-oxylpiperidin-4-yl)-amide, reference compound] | 10000
5 | CC1(C)C=C(C(=O)NC(CO)C(O)CO)C(C)(C)N1[O] (centres unmarked) [Compound 3, 2,2,5,5-Tetramethyl-3-pyrroline-1-oxyl-3-carboxylic Acid (1,3,4-Trihydroxybut-2-yl)amide] | 20000
